Where two headings read alike, the source gives them in different places. Starred links: 1 amine or outer side, 2 acyl side, 3 side chain; linkers in the order of their positions; H or OH if unused. Positions of bridges follow the written chain, without caps; N, C: chain ends. Non-standard residues stand in square brackets, D forms with d. Residues, ends and D or L forms follow the SMILES beside them. *: point of attachment. Orn(4R-OH,5R-OCH2CH2NMe3+) = C[N+](C)(C)CCO[C@@H](N[*:3])[C@H](O)C[C@H](N[*:1])C(=O)[*:2]; pTerphenylCO(4''-OnC5H11) = CCCCCOc1ccc(-c2ccc(-c3ccc(C(=O)*)cc3)cc2)cc1; hTyr(3S-OH,4S-OH) = N[C@H](C(=O)O)[C@H](O)[C@@H](O)c1ccc(O)cc1; Pro(3S-OH,4S-Me) = C[C@H]1CN[C@H](C(=O)O)[C@H]1O; Hyp = O=C(O)[C@@H]1C[C@@H](O)CN1
What was measured:
Candida glabrata = experiment: microbe, parasite or virus in culture; type: cell-based
Candida krusei = experiment: Broth microdilution of invasive fungal isolates (CLSI M27-A3/M38-A2); type: cell-based; conditions: 16 isolates
Candida dubliniensis = experiment: as above; type: cell-based; conditions: 11 isolates
[1] = tested on: azole-resistant C. albicans (R357); experiment: Immunosuppressed rat model of vulvovaginal candidiasis, vaginal CFU; type: in vivo, Candida albicans; conditions: once daily for 3 days, intravaginal 0.1 mL/rat (Compound 1 as 3% gel)
[2] = tested on: C. krusei ATCC 6258, ATCC 14243; experiment: Time-kill assay in vagina-simulative medium pH 4.0 (Table 20); type: cell-based, Candida krusei; conditions: two C. krusei strains; all concentrations (2-128 μg/mL)
[3] = Solubility of test articles in vehicle, visual observation (Table 22); type: physicochemical; conditions: vehicle 10% DMSO/1% Tween 20 in 0.9% NaCl; formulation 0.3, 1 and 3 mg/mL; visual observation
Protocol: Test Articles. […] Amphotericin B and fluconazole were in powder form. Amphotericin B was dissolved in 0.9% NaCl. Fluconazole was dissolved in water (WFI: water for injection).

[4] = tested on: 1,3-β-D-glucan synthase from C. glabrata; experiment: Glucan synthase (GS) inhibition assay
C. parapsilosis = experiment: Antifungal susceptibility testing (CLSI M27-S4); conditions: WT (19 isolates); 24 hr
Protocol: (§1) Antifungal susceptibility testing. Antifungal susceptibility testing was performed in triplicate for a collection of 95 Candida strains (20 C. albicans, 20 C. glabrata, 2 C. dubliniensis, 15 C. krusei, 19 C. parapsilosis, and 19 C. tropicalis) that included 30 isolates showing an echinocandin resistance (ER) phenotype (caspofungin-resistant) in accordance with the guidelines described in the Clinical and Laboratory Standards Institute (CLSI) document M27-S4. […] Stock solutions of the drugs were kept at −86° C.

[5] = tested on: C. glabrata ATCC 90030, ATCC 2001; experiment: Broth microdilution MIC (CLSI), Examples 3 and 4; conditions: Nakaseomyces glabratus
Protocol: Antifungal susceptibility testing. Candida strains were cultured aerobically at 35° C. on SDA plates or in RPMI 1640 broth (pH 7.0). […] MIC assays were performed in triplicate.

C. albicans = experiment: Antifungal susceptibility testing (CLSI M27-S4), WT and echinocandin-resistant isolates; conditions: for MIC median (range): 24 hr
Protocol: as §1

C. glabrata = experiment: as above; conditions: for MIC median (range): 24 hr
Protocol: as §1

C. dubliniensis = experiment: as above; conditions: 24 hr
Protocol: as §1

C. krusei = experiment: as above; conditions: 24 hr
Protocol: as §1

C. tropicalis = experiment: as above; conditions: 24 hr
Protocol: as §1

Q: For `CCCCCOc1ccc(-c2ccc(-c3ccc(C(=O)N[C@H]4C[C@@H](O)[C@@H](OCC[N+](C)(C)C)NC(=O)[C@@H]5[C@@H](O)[C@@H](C)CN5C(=O)[C@H]([C@@H](C)O)NC(=O)[C@H]([C@H](O)[C@@H](O)c5ccc(O)cc5)NC(=O)[C@@H]5C[C@@H](O)CN5C(=O)[C@H]([C@@H](C)O)NC4=O)cc3)cc2)cc1` [Compound 1] ({pTerphenylCO(4''-OnC5H11)}-[Orn(4R-OH,5R-OCH2CH2NMe3+)]T[Hyp][hTyr(3S-OH,4S-OH)]T[Pro(3S-OH,4S-Me)]; lactam 1-C), which “Number of isolates inhibited at MIC 0.06 μg/mL” value (Candida glabrata) is on record?
A: The value was 29.

Q: What about the “Number of isolates inhibited at MIC 0.12 μg/mL” value (Candida glabrata) of the same compound?
A: Its value is 4.

Q: And the “Number of isolates inhibited at MIC 0.25 μg/mL” value (Candida glabrata)?
A: The value was 0.

Q: What about the “Number of isolates inhibited at MIC 0.5 μg/mL” value (Candida glabrata) of the same compound?
A: The value was 0.

Q: And the “Number of isolates inhibited at MIC 1 μg/mL” value (Candida glabrata)?
A: The value was 1.

Q: What about the “Number of isolates inhibited at MIC 2 μg/mL” value (Candida glabrata) of the same compound?
A: Its value is 3.

Q: And the “Number of isolates inhibited at MIC 4 μg/mL” value (Candida glabrata)?
A: Its value is 1.

Q: And the MIC50 (Candida glabrata; Nakaseomyces glabratus, read-out: MIC50)?
A: Its MIC50 is 0.03 µg/mL.

Q: What about the MIC90 (Candida glabrata; Nakaseomyces glabratus, read-out: MIC90) of the same compound?
A: Its MIC90 is 0.06 µg/mL.

Q: And the MIC (Candida glabrata; Nakaseomyces glabratus, read-out: MIC results)?
A: The MIC was 2 to 4 µg/mL.

Q: And the “Cumulative % of isolates inhibited at MIC 0.015 μg/mL” value (Candida krusei)?
A: Its value is “(18.8) %”.

Q: And the “Cumulative % of isolates inhibited at MIC 0.03 μg/mL” value (Candida krusei)?
A: The value was “(87.5) %”.

Q: What about the “Cumulative % of isolates inhibited at MIC 0.06 μg/mL” value (Candida krusei) of the same compound?
A: The value was “(100.0) %”.

Q: And the “Number of isolates inhibited at MIC 0.015 μg/mL” value (Candida krusei)?
A: The value was 3.

Q: What about the “Number of isolates inhibited at MIC 0.03 μg/mL” value (Candida krusei) of the same compound?
A: Its value is 11.

Q: And the “Number of isolates inhibited at MIC 0.06 μg/mL” value (Candida krusei)?
A: Its value is 2.

Q: And the “concentration at which all isolates were inhibited” value (Candida krusei)?
A: Its value is ≤ 0.06 µg/mL.

Q: And the MIC50 (Candida krusei; Pichia kudriavzevii, read-out: MIC50)?
A: Its MIC50 is 0.03 µg/mL.

Q: What about the MIC90 (Candida krusei; Pichia kudriavzevii, read-out: MIC90) of the same compound?
A: Its MIC90 is 0.06 µg/mL.

Q: What about the “Cumulative % of isolates inhibited at MIC 0.03 μg/mL” value (Candida dubliniensis) of the same compound?
A: Its value is “(54.5) %”.

Q: What about the “Cumulative % of isolates inhibited at MIC 0.06 μg/mL” value (Candida dubliniensis) of the same compound?
A: Its value is “(90.9) %”.

Q: What about the “Cumulative % of isolates inhibited at MIC 0.12 μg/mL” value (Candida dubliniensis) of the same compound?
A: The value was “(100.0) %”.

Q: What about the “Number of isolates inhibited at MIC 0.03 μg/mL” value (Candida dubliniensis) of the same compound?
A: Its value is 6.

Q: And the “Number of isolates inhibited at MIC 0.06 μg/mL” value (Candida dubliniensis)?
A: The value was 4.

Q: And the “Number of isolates inhibited at MIC 0.12 μg/mL” value (Candida dubliniensis)?
A: The value was 1.

Q: And the MIC50 (Candida dubliniensis; Candida dubliniensis, read-out: MIC50)?
A: The MIC50 was 0.03 µg/mL.

Q: And the MIC90 (Candida dubliniensis; Candida dubliniensis, read-out: MIC90)?
A: Its MIC90 is 0.06 µg/mL.

Q: What about the “reduction in vaginal CFU compared with no treatment control” value ([1]; a week later, 8 days after treatment end (day 12)) of the same compound?
A: The value was > 3 log-fold.

Q: What about the “reduction in vaginal CFU compared with no treatment control” value ([1]; one day after treatment end (day 5)) of the same compound?
A: The value was 3.8 log-fold.

Q: What about the “time at which cidality (≥3-log reduction in CFU) was achieved” value [2] of the same compound?
A: The value was < 24 h.

Q: And the Solubility [3]?
A: Its Solubility is “S”.

Q: What about the IC50 ([4]; DPL50, WT) of the same compound?
A: Its IC50 is 0.00257 µg/mL.

Q: And the “GS activity after treatment with a high dose” value ([4]; F659del mutant GS, 10,000 ng/mL)?
A: Its value is “did not exhibit significant reductions in activity”.

Q: And the “MIC median (range)” value (C. parapsilosis)?
A: Its value is 2 (2-4) mg/L.

Q: What about the MIC ([5]; ATCC2001|ATCC90030, 24 h, read-out: Broth MIC, ATCC 2001 wild-type, 24 h, ~50% inhibition) of the same compound?
A: The MIC was 0.125 µg/mL.

Q: And the MIC ([5]; ATCC2001|ATCC90030, 24 h, read-out: Broth MIC, ATCC 90030 wild-type, 24 h, ~50% inhibition)?
A: The MIC was 0.06 µg/mL.

Q: What about the MIC ([5]; ATCC2001|ATCC90030, ATCC 2001 spontaneous mutant, Fks2 HS1 D666N) of the same compound?
A: Its MIC is 0.5 µg/mL.

Q: And the MIC ([5]; ATCC2001|ATCC90030, ATCC 2001 spontaneous mutant, Fks2 HS1 D666Y)?
A: Its MIC is 0.5 µg/mL.

Q: And the MIC ([5]; ATCC2001|ATCC90030, ATCC 2001 spontaneous mutant, Fks2 HS1 R665G)?
A: The MIC was 0.5 µg/mL.

Q: And the MIC ([5]; ATCC2001|ATCC90030, ATCC 2001 spontaneous mutant, Fks2 HS1 S663F)?
A: Its MIC is 1 µg/mL.

Q: What about the MIC ([5]; ATCC2001|ATCC90030, ATCC 2001 spontaneous mutant, Fks2 HS1 ΔF659) of the same compound?
A: The MIC was 2 µg/mL.

Q: And the MIC ([5]; ATCC2001|ATCC90030, ATCC 2001 spontaneous mutant, Fks2 HS2 R1378S)?
A: The MIC was 0.25 µg/mL.

Q: What about the MIC ([5]; ATCC2001|ATCC90030, ATCC 90030 spontaneous mutant, Fks2 HS1 D666H) of the same compound?
A: Its MIC is 0.25 µg/mL.

Q: And the MIC ([5]; ATCC2001|ATCC90030, ATCC 90030 spontaneous mutant, Fks2 HS1 ΔF659)?
A: The MIC was 2 µg/mL.

Q: And the “% of ER isolates with an MIC of ≤0.5 mg/L” value (C. albicans; C. albicans ER isolates)?
A: Its value is 60%.

Q: And the “MIC median (range)” value (C. albicans; ER (10 isolates))?
A: Its value is 0.50 (0.06-2) mg/L.

Q: What about the “MIC median (range)” value (C. albicans; WT (10 isolates)) of the same compound?
A: The value was <0.03 (<0.03)^ mg/L.

Q: What about the “% of ER isolates with an MIC” value (C. glabrata; C. glabrata ER isolates (n=11)) of the same compound?
A: Its value is 18%.

Q: And the “MIC median (range)” value (C. glabrata; ER (11 isolates))?
A: The value was 1.00 (0.12-4) mg/L.

Q: What about the “MIC median (range)” value (C. glabrata; WT (9 isolates)) of the same compound?
A: The value was 0.06 (0.03-0.12) mg/L.

Q: And the “MIC median (range)” value (C. dubliniensis; ER (1 isolate))?
A: Its value is 0.03 µg/mL.

Q: And the “MIC median (range)” value (C. dubliniensis; WT (1 isolate))?
A: The value was 0.03 µg/mL.

Q: And the “MIC median (range)” value (C. krusei; ER (4 isolates))?
A: Its value is 0.50 (<0.03-4) mg/L.

Q: And the “MIC median (range)” value (C. krusei; WT (11 isolates))?
A: The value was 0.03 (<0.03-0.06) mg/L.

Q: And the “MIC median (range)” value (C. tropicalis; ER (4 isolates))?
A: Its value is 2.00 (0.5-2) mg/L.

Q: What about the “MIC median (range)” value (C. tropicalis; WT (15 isolates)) of the same compound?
A: The value was 0.03 (0.03)^ mg/L.
